Data on 30 molecules can be found in US20130030001A1 (priority 2008, published 2013).

The test has as its target T1, human muscarinic acetylcholine M3 receptor (Homo sapiens, UniProt P20309).
T1 construct: expressed in transfected cells; host or cells: CHO-K1 (Chinese Hamster Ovary) cell membranes
In words: biochemical. It is filed as binding.

Counter-ions that a name gives are not always drawn.

T1 sequence (P20309 whole entry): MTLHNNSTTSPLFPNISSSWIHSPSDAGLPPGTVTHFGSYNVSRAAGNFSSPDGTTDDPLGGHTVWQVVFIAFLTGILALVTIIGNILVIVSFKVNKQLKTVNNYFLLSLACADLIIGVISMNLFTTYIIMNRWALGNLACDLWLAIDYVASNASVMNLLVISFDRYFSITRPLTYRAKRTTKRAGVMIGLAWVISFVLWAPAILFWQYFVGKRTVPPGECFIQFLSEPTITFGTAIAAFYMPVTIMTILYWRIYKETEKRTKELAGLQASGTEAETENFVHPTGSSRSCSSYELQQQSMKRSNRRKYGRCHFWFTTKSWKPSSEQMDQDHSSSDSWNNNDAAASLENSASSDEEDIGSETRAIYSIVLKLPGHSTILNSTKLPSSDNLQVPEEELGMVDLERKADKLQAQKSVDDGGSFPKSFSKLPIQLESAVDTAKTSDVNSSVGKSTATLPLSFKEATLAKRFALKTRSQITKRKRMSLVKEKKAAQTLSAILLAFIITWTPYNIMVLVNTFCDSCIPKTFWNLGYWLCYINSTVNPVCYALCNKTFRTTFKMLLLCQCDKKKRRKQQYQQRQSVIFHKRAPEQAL

For `Cc1ccc(NC(=O)C[N+]23CCC(CC2)[C@@H](OC(=O)C2(c4ccccc4)CCCCCC2)C3)cn1` [Example 1, (R)-1-[(6-Methyl-pyridin-3-ylcarbamoyl)-methyl]-3-(1-phenyl-cycloheptanecarbonyloxy)-1-azonia-bicyclo[2.2.2]octane chloride], the IC50 (as a rule, the concentration at which inhibition is half-maximal) is, setting by setting: (M3 binding IC50) less than 2 nM; (pIC50) 0.794 nM. As for `Cc1cncc(NC(=O)C[N+]23CCC(CC2)[C@@H](OC(=O)C2(c4ccccc4)CCCCCC2)C3)n1` [Example 2, (R)-1-[(6-Methyl-pyrazin-2-ylcarbamoyl)-methyl]-3-(1-phenyl-cycloheptanecarbonyloxy)-1-azonia-bicyclo[2.2.2]octane bromide], the IC50 (M3 binding IC50) was less than 2 nM. The same measure, in the same setting: for `O=C(C[N+]12CCC(CC1)[C@@H](OC(=O)C1(c3ccccc3)CCCCCC1)C2)Nc1ccc(C(F)(F)F)nn1` [Example 3, (R)-3-(1-Phenyl-cycloheptanecarbonyloxy)-1-[(6-trifluoromethyl-pyridazin-3-ylcarbamoyl)-methyl]-1-azonia-bicyclo[2.2.2]octane bromide] the value was 2 to 10 nM; for `O=C(C[N+]12CCC(CC1)[C@@H](OC(=O)C1(c3ccccc3)CCCCCC1)C2)Nc1noc2ccccc12` [Example 4, (R)-1-(Benzo[d]isoxazol-3-ylcarbamoylmethyl)-3-(1-phenyl-cycloheptanecarbonyloxy)-1-azonia-bicyclo[2.2.2]octane chloride], less than 2 nM.

For the molecule `O=C(C[N+]12CCC(CC1)[C@@H](OC(=O)C1(c3cccs3)CCCCCC1)C2)Nc1cccnn1` [Example 5, (R)-1-(Pyridazin-3-ylcarbamoylmethyl)-3-(1-thiophen-2-yl-cycloheptanecarbonyloxy)-1-azonia-bicyclo[2.2.2]octane bromide], the IC50 was less than 2 nM (M3 binding IC50) and 0.398 nM (pIC50). As for `Cc1cc(NC(=O)C[N+]23CCC(CC2)[C@@H](OC(=O)C2(c4cccs4)CCCCCC2)C3)no1` [Example 6, (R)-1-[(5-Methyl-isoxazol-3-ylcarbamoyl)-methyl]-3-(1-thiophen-2-yl-cycloheptanecarbonyloxy)-1-azonia-bicyclo[2.2.2]octane bromide], the half-maximal inhibitory concentration (IC50) (M3 binding IC50) is less than 2 nM.

The molecule `Cc1cc(NC(=O)C[N+]23CCC(CC2)[C@@H](OC(=O)C2(c4cccs4)CCCCCC2)C3)on1` [Example 7, (R)-1-[(3-Methyl-isoxazol-5-ylcarbamoyl)-methyl]-3-(1-thiophen-2-yl-cycloheptanecarbonyloxy)-1-azonia-bicyclo[2.2.2]octane bromide] showed an IC50 (M3 binding IC50) of 2 to 10 nM.

`O=C(C[N+]12CCC(CC1)[C@@H](OC(=O)C1(c3cccs3)CCCCCC1)C2)Nc1cccc(F)c1` [Example 8, (R)-1-[(3-Fluoro-phenylcarbamoyl)-methyl]-3-(1-thiophen-2-yl-cycloheptanecarbonyloxy)-1-azonia-bicyclo[2.2.2]octane bromide]: the IC50 (M3 binding IC50) is less than 2 nM. The same measure, in the same setting: the value for `Cc1cnc(NC(=O)C[N+]23CCC(CC2)[C@@H](OC(=O)C2(c4cccs4)CCCCCC2)C3)cn1` [Example 9, (R)-1-[(5-Methyl-pyrazin-2-ylcarbamoyl)-methyl]-3-(1-thiophen-2-yl-cycloheptanecarbonyloxy)-1-azonia-bicyclo[2.2.2]octane bromide] was less than 2 nM; that for `O=C(C[N+]12CCC(CC1)[C@@H](OC(=O)C1(c3cccs3)CCCCCC1)C2)Nc1noc2ccccc12` [Example 10, (R)-1-(Benzo[d]isoxazol-3-ylcarbamoylmethyl)-3-(1-thiophen-2-yl-cycloheptanecarbonyloxy)-1-azonia-bicyclo[2.2.2]octane chloride] was less than 2 nM. On to `O=C(C[N+]12CCC(CC1)[C@@H](OC(=O)C1(c3ccccc3)CCCCCC1)C2)Nc1ccncc1` [Example 16, (R)-3-(1-Phenyl-cycloheptanecarbonyloxy)-1-(pyridin-4-ylcarbamoylmethyl)-1-azonia-bicyclo[2.2.2]octane chloride], for which the IC50 (M3 binding IC50) was less than 2 nM. The same measure, in the same setting: the value for `Cc1ccc(NC(=O)C[N+]23CCC(CC2)[C@@H](OC(=O)C2(c4ccccc4)CCCCCC2)C3)nc1` [Example 18, (R)-1-[(5-Methyl-pyridin-2-ylcarbamoyl)-methyl]-3-(1-phenyl-cycloheptanecarbonyloxy)-1-azonia-bicyclo[2.2.2]octane chloride] was less than 2 nM. For the setting “M3 binding IC50”, `O=C(C[N+]12CCC(CC1)[C@@H](OC(=O)C1(c3ccccc3)CCCCCC1)C2)Nc1ccncn1` [Example 22, (R)-3-(1-Phenyl-cycloheptanecarbonyloxy)-1-(pyrimidin-4-ylcarbamoylmethyl)-1-azonia-bicyclo[2.2.2]octane chloride] displayed an IC50 of less than 2 nM. Still for that read-out and setting: for `O=C(C[N+]12CCC(CC1)[C@@H](OC(=O)C1(c3ccccc3)CCCCCC1)C2)Nc1ccccc1F` [Example 23, (R)-1-[(2-Fluoro-phenylcarbamoyl)-methyl]-3-(1-phenyl-cycloheptanecarbonyloxy)-1-azonia-bicyclo[2.2.2]octane bromide] the value was less than 2 nM; for `O=C(C[N+]12CCC(CC1)[C@@H](OC(=O)C1(c3ccccc3)CCCCCC1)C2)Nc1cccc(F)c1F` [Example 24, (R)-1-[(2,3-Difluoro-phenylcarbamoyl)-methyl]-3-(1-phenyl-cycloheptanecarbonyloxy)-1-azonia-bicyclo[2.2.2]octane bromide], less than 2 nM.

Consider `O=C(O[C@H]1C[N+]2(CCc3ccc4c(c3)CCO4)CCC1CC2)C1(c2ccccc2)CCCCCC1` [Example 25, (R)-1-[2-(2,3-Dihydro-benzofuran-5-yl)-ethyl]-3-(1-phenyl-cycloheptanecarbonyloxy)-1-azonia-bicyclo[2.2.2]octane formate], for which the IC50 (M3 binding IC50) was less than 2 nM. On to `O=C(O[C@H]1C[N+]2(CCOc3ccc(F)cc3)CCC1CC2)C1(c2ccccc2)CCCCCC1` [Example 26, (R)-1-[2-(4-Fluoro-phenoxy)-ethyl]-3-(1-phenyl-cycloheptanecarbonyloxy)-1-azonia-bicyclo[2.2.2]octane formate], for which the IC50 (M3 binding IC50) was less than 2 nM. `O=C(C[N+]12CCC(CC1)[C@@H](OC(=O)C1(c3ccccc3)CCCCCC1)C2)Nc1ccnnc1` [Example 27, (R)-3-(1-phenyl-cycloheptanecarbonyloxy)-1-(pyridazin-4-ylcarbamoylmethyl)-1-azonia-bicyclo[2.2.2]octane formate] returned an IC50 (M3 binding IC50) of 2 to 10 nM. Still for that read-out and setting: the value for `O=C(C[N+]12CCC(CC1)[C@@H](OC(=O)C1(c3ccccc3)CCCCCC1)C2)Nc1cncc(F)c1` [Example 28, (R)-1-[(5-Fluoro-pyridin-3-ylcarbamoyl)-methyl]-3-(1-phenyl-cycloheptanecarbonyloxy)-1-azonia-bicyclo[2.2.2]octane chloride] was 2 to 10 nM; that for `O=C(O[C@H]1C[N+]2(CCOc3cccnc3)CCC1CC2)C1(c2ccccc2)CCCCCC1` [Example 29, (R)-3-(1-Phenyl-cycloheptanecarbonyloxy)-1-[2-(pyridin-3-yloxy)-ethyl]-1-azonia-bicyclo[2.2.2]octane formate] was 2 to 10 nM. On the same count and under the same terms, the value for `Cc1cccc(NC(=O)C[N+]23CCC(CC2)[C@@H](OC(=O)C2(c4ccccc4)CCCCCC2)C3)n1` [Example 30, (R)-1-[(6-Methyl-pyridin-2-ylcarbamoyl)-methyl]-3-(1-phenyl-cycloheptanecarbonyloxy)-1-azonia-bicyclo[2.2.2]octane chloride] was less than 2 nM. On the same count and under the same terms, for `Cc1ccccc1NC(=O)C[N+]12CCC(CC1)[C@@H](OC(=O)C1(c3ccccc3)CCCCCC1)C2` [Example 31, (R)-3-(1-Phenyl-cycloheptanecarbonyloxy)-1-(o-tolylcarbamoyl-methyl)-1-azonia-bicyclo[2.2.2]octane bromide] the value was 2 to 10 nM. As for `O=C(O[C@H]1C[N+]2(CCc3cnccn3)CCC1CC2)C1(c2ccccc2)CCCCCC1` [Example 32, (R)-3-(1-Phenyl-cycloheptanecarbonyloxy)-1-(2-pyrazin-2-yl-ethyl)-1-azonia-bicyclo[2.2.2]octane bromide], under “M3 binding IC50”, the IC50 lay within 2 to 10 nM. For the molecule `O=C(O[C@@H]1C[N+]2(CCCOc3ccccc3)CCC1CC2)C1(c2ccccc2)CCCCCC1` [Example 33, (S)-1-(3-Phenoxy-propyl)-3-(1-phenyl-cycloheptanecarbonyloxy)-1-azonia-bicyclo[2.2.2]octane formate], the half-inhibitory concentration (IC50) (M3 binding IC50) lay within 2 to 10 nM. On the same count and under the same terms, for `O=C(C[N+]12CCC(CC1)[C@@H](OC(=O)C1(c3ccccc3)CCCCCC1)C2)NCCOc1cccc(F)c1` [Example 34, (R)-1-{[2-(3-Fluoro-phenoxy)-ethylcarbamoyl]-methyl}-3-(1-phenyl-cycloheptanecarbonyloxy)-1-azonia-bicyclo[2.2.2]octane bromide] the value was 2 to 10 nM; for `O=C(C[N+]12CCC(CC1)[C@@H](OC(=O)C1(c3ccccc3)CCCCCC1)C2)Nc1cc(F)cc(F)c1` [Example 35, (R)-1-[(3,5-Difluoro-phenylcarbamoyl)-methyl]-3-(1-phenyl-cycloheptanecarbonyloxy)-1-azonia-bicyclo[2.2.2]octane bromide], 2 to 10 nM. Same read-out and setting: the value for `COc1ccc(COCC[N+]23CCC(CC2)[C@@H](OC(=O)C2(c4ccccc4)CCCCCC2)C3)cc1` [Example 36, (R)-1-[2-(4-methoxy-benzyloxy)-ethyl]-3-(1-phenyl-cycloheptanecarbonyloxy)-1-azonia-bicyclo[2.2.2]octane formate] was 2 to 10 nM. Same read-out and setting: the value for `O=C(O[C@H]1C[N+]2(CCOCCc3ccccc3)CCC1CC2)C1(c2ccccc2)CCCCCC1` [Example 37, (R)-1-(2-Phenethyloxy-ethyl)-3-(1-phenyl-cycloheptanecarbonyloxy)-1-azonia-bicyclo[2.2.2]octane bromide] was less than 2 nM; that for `O=C(C[N+]12CCC(CC1)[C@@H](OC(=O)C1(c3ccccc3)CCCCCC1)C2)Nc1c(F)cccc1F` [Example 38, (R)-1-[(2,6-Difluoro-phenylcarbamoyl)-methyl]-3-(1-phenyl-cycloheptanecarbonyloxy)-1-azonia-bicyclo[2.2.2]octane bromide] was less than 2 nM. Take `CN(C(=O)C[N+]12CCC(CC1)[C@@H](OC(=O)C1(c3ccccc3)CCCCCC1)C2)c1ccccc1` [Example 39, (R)-1-[(Methyl-phenyl-carbamoyl)-methyl]-3-(1-phenyl-cycloheptanecarbonyloxy)-1-azonia-bicyclo[2.2.2]octane formate]: the IC50 (M3 binding IC50) was 2 to 10 nM.
